In patent publication US20230248744A1, “25-HYDROXYVITAMIN D2 AND/OR D3 FOR USE IN OBESITY” (CARBOGEN AMCIS B.V., priority 2020, published 2023):

Test: Calculated total uptake into blood and deposition of vitamin D3 from the blood level curves (FIG. 6)
Format: in vivo, human
Conditions: for amount of vitamin D3 deposited in the first 24 hours: assuming a total blood volume of 5 liters
Excerpt: FIG. 6: The upper curves show the calculated total amounts of vitamin D3 arriving in blood of malabsorptive, obese and normal individuals. The lower curves show the experimental blood levels of vitamin D3 expressed in ng/mL of blood. The upper curves are as well expressed in ng/mL of blood, disregarding differing total blood volumes for malabsorptive, obese and normal individuals.
In order to further analyze the results, the shape of the concentration/time-curves describing the observed average blood levels of vitamin D3 was used to approximately calculate its total uptake into blood after dosage. The calculation was based on the assumptions compiled in the comments regarding FIG. 6. Metabolism in terms of the appearance of 25(OH)D3 which was experimentally determined in parallel to vitamin D3 can thereby be regarded as part of the immediately disappearing percentage of the total uptake into blood, and it is reasonable to assume that there is no other relevant metabolic step in this early phase, which has to be taken into account.
FIG. 6 presents the accordingly calculated total uptake and the experimentally determined levels of vitamin D3 for the first 24 hours after dosing. The difference between the upper (calculated) and the lower (experimental) curve represents the sum of metabolism and deposition. Herein the assumption is made that the elimination can be disregarded, because as known to the skilled person there is essentially no elimination of non-metabolized vitamin D3 from blood into urine. Metabolism in the first 24 hours results in all three cases (viz., malabsorptive, obese, and normal subjects) in the consumption of about 2 to 5 ng/mL, viz. a small part of the mentioned calculated difference (compare FIG. 7). No correction relating to said consumption seems necessary for determining the metabolite's observed concentration because the metabolite is rapidly forming a DBP-complex, characterized by a long half-life. However, the fact that the 25(OH)D3 formed must be determined as difference to baseline adds an element of uncertainty and the assumption that no more than a minor part of the 25(OH)D3 formed in this phase may not be absolutely to the point.
wherein the same correction regarding metabolism, as described above, was used for the obese and for the normal individuals, viz. 1.5 ng/mL at 15 hours and 3.5 ng/mL at 24 hours, respectively. These values come from FIG. 7B and are charged with a significant uncertainty—due to the significant experimental error in the early part of the respective curves. But they make sense, if inspecting the subsequent increase which can be more reliably determined. […]
The following relates to the coverage of the surface of adipocytes with vitamin D3. […] A homogenous cell diameter of 50 μm was determined to deliver about the same overall cell-surface one calculates by working with the rather wide experimental distribution of cell sizes as reported by Karin G. Stenkula et al. Thereby it was in the sense of a model consideration assumed that cubes containing large lipid droplet cubes can be used to describe the cells' shape (in other words: cubes of an edge-length of 50 μm enclosing cubes of about the same size were determined to represent a reasonable model for the description of the combined surface of the variable size cells' with their lipid droplets). […]

C=C1CC[C@H](O)C/C1=C/C=C1\CCC[C@]2(C)[C@@H]([C@H](C)CCCC(C)C)CC[C@@H]12 [vitamin D3, cholecalciferol]
R, deposition in fatty tissues in high BMI versus low BMI subjects (after 2½ days, from difference to Cmax and differing blood volumes): 1.05 times | amount of vitamin D3 deposited in the first 24 hours (healthy obese subjects): 92.5 µg | deposition of vitamin D3 (low BMI group, after 2½ days): ~7400 I.U. | amount of vitamin D3 deposited in the first 24 hours (normal subjects): 62.5 µg | deposition in healthy obese versus normal low BMI subjects (time point of 15 hours): 1.5 times
